Source: PubChem BioAssay AID248 (DTP/NCI, 2004)
Where “and” joins values, the source holds several entries; their conditions need not be identical. Equal entries are not always repeated. Inconclusive results and toxic doses are left out. Rule as the data show it: active = T/C of 150% or more; inactive = T/C below 125%.

Tested on: L1210 leukemia ip in BDF1 mice, survival T/C
Test: NCI In Vivo Anticancer Drug Screen. Data for tumor model L1210 Leukemia (intraperitoneal) in B6D2F1 (BDF1) mice
Settings: endpoint: mean survival time, higher = longer survival
Procedure, shortened: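 Value reflects the ratio of survival in compound-treated mice to survival in vehicle-treated controls, with both groups carrying the same transplanted tumor.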

[1] = dose: 50.0 mg/kg/injection, schedule: Q01DX001 (ip), vehicle: carboxymethylcellulose (CMC)
[2] = dose: 100.0 mg/kg/injection, schedule: Q01DX001 (ip), vehicle: carboxymethylcellulose (CMC)
[3] = dose: 50.0 mg/kg/injection, schedule: Q01DX009 (ip), vehicle: saline with Tween-80
[4] = dose: 100.0 mg/kg/injection, schedule: Q01DX009 (ip), vehicle: saline with Tween-80
[5] = dose: 200.0 mg/kg/injection, schedule: Q01DX009 (ip), vehicle: saline with Tween-80
[6] = dose: 400.0 mg/kg/injection, schedule: Q04DX003 (ip), vehicle: Klucel (hydroxypropylcellulose) (HPC)
[7] = dose: 100.0 mg/kg/injection, schedule: Q04DX003 (ip), vehicle: Klucel (hydroxypropylcellulose) (HPC)
[8] = dose: 200.0 mg/kg/injection, schedule: Q04DX003 (ip), vehicle: Klucel (hydroxypropylcellulose) (HPC)
[9] = dose: 200.0 mg/kg/injection, schedule: Q01DX001 (ip), vehicle: carboxymethylcellulose (CMC)
[10] = dose: 400.0 mg/kg/injection, schedule: Q01DX001 (ip), vehicle: carboxymethylcellulose (CMC)
[11] = dose: 100.0 mg/kg/injection, schedule: Q01DX009 (ip), vehicle: Klucel (hydroxypropylcellulose) (HPC)
[12] = dose: 200.0 mg/kg/injection, schedule: Q01DX009 (ip), vehicle: Klucel (hydroxypropylcellulose) (HPC)
[13] = dose: 400.0 mg/kg/injection, schedule: Q01DX009 (ip), vehicle: Klucel (hydroxypropylcellulose) (HPC)
[14] = dose: 100.0 mg/kg/injection, schedule: Q04DX002 (ip), vehicle: Klucel (hydroxypropylcellulose) (HPC)

Measured: T/C

C=CCC(O)C=C (stereo unspecified)
inactive: [1] 89 % of control | [2] 92 % of control

CC1CCC2C1C1C(CCC2(C)O)C1(C)C (stereo unspecified)
inactive: dose: 100.0 mg/kg/injection, schedule: Q01DX009 (ip), vehicle: other 90 % of control | dose: 100.0 mg/kg/injection, schedule: Q04DX003 (ip), vehicle: saline sonified 103 % of control | dose: 200.0 mg/kg/injection, schedule: Q01DX009 (ip), vehicle: other 95 % of control | dose: 200.0 mg/kg/injection, schedule: Q04DX003 (ip), vehicle: saline sonified 103 % of control | dose: 400.0 mg/kg/injection, schedule: Q01DX009 (ip), vehicle: other 98 % of control | dose: 400.0 mg/kg/injection, schedule: Q04DX003 (ip), vehicle: saline sonified 102 % of control

Nc1nc(SC2CCCCC2)c2[nH]cnc2n1
inactive: dose: 60.0 mg/kg/injection, schedule: Q01DX Z (ip), vehicle: carboxymethylcellulose (CMC) 95 % of control | dose: 120.0 mg/kg/injection, schedule: Q01DX Z (ip), vehicle: carboxymethylcellulose (CMC) 104 % of control | dose: 240.0 mg/kg/injection, schedule: Q01DX Z (ip), vehicle: carboxymethylcellulose (CMC) 106 % of control | dose: 480.0 mg/kg/injection, schedule: Q01DX Z (ip), vehicle: carboxymethylcellulose (CMC) 112 % of control

CC(C)CCCC(C)C1CCC2C3CCC4=CC5(CCC4(C)C3CCC12C)SCCS5 (stereo unspecified)
inactive: [3] 98 % of control | [4] 101 % of control | [5] 95 % of control

CCNC(=S)NNC(=S)NNc1ccccc1
inactive: dose: 12.5 mg/kg/injection, schedule: Q04DX002 (ip), vehicle: other 102 % of control | dose: 25.0 mg/kg/injection, schedule: Q04DX002 (ip), vehicle: other 100 % of control | dose: 50.0 mg/kg/injection, schedule: Q04DX002 (ip), vehicle: other 102 % of control

Nc1cc2c3c(cccc3c1Br)C(=O)N(Cc1ccccc1)C2=O
inactive: [6] 88 % of control

Cc1c(O)ccc(C(=O)CCl)c1O
inactive: dose: 12.0 mg/kg/injection, schedule: Q01DX009 (ip), vehicle: saline with Tween-80 100 % of control | dose: 25.0 mg/kg/injection, schedule: Q01DX009 (ip), vehicle: saline with Tween-80 102 % of control and 107 % of control | [7] 106 % of control | [8] 102 % of control

Nc1nc(N)nc(Cc2nc(N)nc(N)n2)n1
inactive: [1] 90 % of control | [2] 87 % of control | [9] 92 % of control | [10] 95 % of control

CCOC(=O)C(O)(C(=O)OCC)C1C(=O)c2ccccc2C1=O
inactive: dose: 50.0 mg/kg/injection, schedule: Q04DX003 (ip), vehicle: Klucel (hydroxypropylcellulose) (HPC) 91 % of control | [7] 98 % of control | [8] 99 % of control

CCCCCCCCNC(=O)CCCCC(=O)NCCCCCCCC
inactive: [11] 91 % of control | [7] 90 % of control | [12] 86 % of control | [8] 90 % of control | [13] 95 % of control | [6] 101 % of control

O=C(Nc1cccc(F)c1)N(Cc1ccccc1)Cc1ccccc1
inactive: [11] 92 % of control | [12] 102 % of control | [13] 97 % of control

CCCCCCCCCCCN1C(=O)c2ccccc2S1(=O)=O
inactive: dose: 222.0 mg/kg/injection, schedule: Q01DX Z (ip), vehicle: methylcellulose (MC) 91 % of control | dose: 333.0 mg/kg/injection, schedule: Q01DX Z (ip), vehicle: methylcellulose (MC) 105 % of control | dose: 500.0 mg/kg/injection, schedule: Q01DX Z (ip), vehicle: methylcellulose (MC) 102 % of control

SCCSCCNc1ccccc1
inactive: [3] 101 % of control | [4] 101 % of control | [5] 101 % of control

CCC1CC2c3cc(OC)c(OC)cc3CCN2CC1(O)Cc1nccc2c1CCCC2 (stereo unspecified)
inactive: [2] 104 % of control | [9] 103 % of control | [10] 95 % of control

CC(C)CC(CC(C)C)NCC(C)OC(=O)c1ccc(N(C)C)cc1 (stereo unspecified)
inactive: dose: 75.0 mg/kg/injection, schedule: Q01DX001 (ip), vehicle: other 101 % of control | dose: 150.0 mg/kg/injection, schedule: Q01DX001 (ip), vehicle: other 106 % of control

OC1/C(=C/c2ccco2)CCC2CCCCC21 (stereo unspecified)
inactive: dose: 100.0 mg/kg/injection, schedule: Q01DX001 (ip), vehicle: Klucel (hydroxypropylcellulose) (HPC) 101 % of control | dose: 200.0 mg/kg/injection, schedule: Q01DX001 (ip), vehicle: Klucel (hydroxypropylcellulose) (HPC) 98 % of control | dose: 400.0 mg/kg/injection, schedule: Q01DX001 (ip), vehicle: Klucel (hydroxypropylcellulose) (HPC) 90 % of control

CCCC[n+]1cccc2ccccc21
inactive: dose: 25.0 mg/kg/injection, schedule: Q01DX001 (ip), vehicle: Klucel (hydroxypropylcellulose) (HPC) 105 % of control | dose: 50.0 mg/kg/injection, schedule: Q01DX001 (ip), vehicle: Klucel (hydroxypropylcellulose) (HPC) 100 % of control | [2] 96 % of control

NCc1c(Cl)c(Cl)c(Cl)c(CN)c1Cl
inactive: [1] 89 % of control | [3] 97 % of control | [2] 94 % of control | [4] 102 % of control | [5] 93 % of control

Cc1ccc(Cl)c(NC(=O)Nc2ccccc2Cl)c1
inactive: [11] 94 % of control and 90 % of control | [12] 93 % of control | [13] 88 % of control and 89 % of control

Cc1cn(C2CC(O)C(CN)O2)c(=O)[nH]c1=O (stereo unspecified)
inactive: dose: 100.0 mg/kg/injection, schedule: Q01DX005 (ip), vehicle: saline 96 % of control | dose: 200.0 mg/kg/injection, schedule: Q01DX005 (ip), vehicle: saline 104 % of control

O=S(=O)(F)c1ccc(CBr)cc1
inactive: dose: 25.0 mg/kg/injection, schedule: Q01DX001 (ip), vehicle: saline 113 % of control | dose: 50.0 mg/kg/injection, schedule: Q01DX001 (ip), vehicle: saline 123 % of control | dose: 100.0 mg/kg/injection, schedule: Q01DX001 (ip), vehicle: saline 95 % of control and 98 % of control

CN(C)N=Nc1ccc(C(=O)OC2CCC3C4CCC5=CC(=O)CCC5(C)C4CCC23C)cc1 (stereo unspecified)
inactive: dose: 10.0 mg/kg/injection, schedule: Q01DX009 (ip), vehicle: Klucel (hydroxypropylcellulose) (HPC) 96 % of control | [14] 94 % of control | [12] 102 % of control | dose: 200.0 mg/kg/injection, schedule: Q04DX002 (ip), vehicle: Klucel (hydroxypropylcellulose) (HPC) 102 % of control | [13] 97 % of control | dose: 400.0 mg/kg/injection, schedule: Q04DX002 (ip), vehicle: Klucel (hydroxypropylcellulose) (HPC) 91 % of control

O=C(c1ccc([N+](=O)[O-])cc1)c1ccc([N+](=O)[O-])cc1
inactive: dose: 100.0 mg/kg/injection, schedule: Q04DX002 (ip), vehicle: saline with Tween-80 90 % of control | dose: 200.0 mg/kg/injection, schedule: Q04DX002 (ip), vehicle: saline with Tween-80 90 % of control | dose: 400.0 mg/kg/injection, schedule: Q04DX002 (ip), vehicle: saline with Tween-80 101 % of control

COc1cc2c(cc1O)C(CCc1cc(OC)c(OC)c(OC)c1)=[N+](C)CC2
inactive: dose: 25.0 mg/kg/injection, schedule: Q04DX002 (ip), vehicle: Klucel (hydroxypropylcellulose) (HPC) 101 % of control | dose: 50.0 mg/kg/injection, schedule: Q04DX002 (ip), vehicle: Klucel (hydroxypropylcellulose) (HPC) 101 % of control | [14] 105 % of control

CCOC(=O)c1cnc(NN)nc1NCc1ccccc1
inactive: [3] 93 % of control | [4] 89 % of control | dose: 100.0 mg/kg/injection, schedule: Q04DX003 (ip), vehicle: saline with Tween-80 87 % of control | [5] 98 % of control | dose: 200.0 mg/kg/injection, schedule: Q04DX003 (ip), vehicle: saline with Tween-80 96 % of control

CCS(=O)(=O)c1ccc2nnnn2n1
inactive: dose: 6.25 mg/kg/injection, schedule: Q04DX003 (ip), vehicle: saline 103 % of control | dose: 12.5 mg/kg/injection, schedule: Q04DX003 (ip), vehicle: saline 100 % of control | dose: 25.0 mg/kg/injection, schedule: Q04DX003 (ip), vehicle: saline 112 % of control

Cc1ccc(S(=O)(=O)O)cc1.[Ag]
inactive: dose: 25.0 mg/kg/injection, schedule: Q04DX002 (ip), vehicle: saline + alcohol 92 % of control | dose: 50.0 mg/kg/injection, schedule: Q04DX002 (ip), vehicle: saline + alcohol 96 % of control
